Data from patent publication US20230081426A1, “COMPOUNDS AND METHODS FOR KRAS MODULATION AND INDICATIONS THEREFOR” (Plexxikon Inc., priority 2020, published 2023).

Columns and labels:
[1] = target: T1, G12D-mutant human KRAS (amino acid residues 1-188) (Homo sapiens, UniProt P01116, G12D); test: KRAS Binding Disruption Assay (AlphaScreen; biotinylated KRpep-2d analogue or RAF1-RBD), G12D; conditions: KRAS G12D; geometric mean; read-out: KRAS GMean IC50 (uM) MUTATION: G12D
T1 construct: G12D or G12C-mutant human KRAS (amino acid residues 1-188) with FLAG tag; made in house; host or cells: E. coli
Summary of the method: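 Mutant KRAS (5-20 nM) incubated 1 h at 25° C with test compound and 5-20 nM biotinylated KRpep-2d analogue or RAF1-RBD in 20 mM HEPES pH 7.5, 100 mM NaCl, 5 mM MgCl2, 0.01% Tween-20, 0.01% BSA.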

[2] = target: T2, G12V-mutant human KRAS (amino acid residues 1-188) (Homo sapiens, UniProt P01116, G12V); test: KRAS Binding Competition Assay (AlphaScreen; biotinylated KRpep-2d analogue), G12V; conditions: geometric mean, read-out: KRAS GMean IC50 (uM) MUTATION: G12V
T2 construct: G12V-mutant human KRAS (amino acid residues 1-188) with FLAG tag was purified from E. coli; made in house; host or cells: E. coli

| IC50 [1] [µM] | IC50 [2] [µM] | SMILES |
| --- | --- | --- |
| 10 to 100 | 10 to 100 | CN1CCC[C@H]1COc1nc(N2[C@@H]3CC[C@H]2CNC3)c2ccc(-c3cc(O)cc4cccnc34)cc2n1 [P-0262, 8-(4-((1R,5S)-3,8-diazabicyclo[3.2.1]octan-8-yl)-2-(((S)-1-methylpyrrolidin-2-yl)methoxy)quinazolin-7-yl)quinolin-6-ol] |
| 10 to 100 | 10 to 100 | CN1CCC[C@H]1COc1nc(N2[C@@H]3CC[C@H]2CNC3)c2ccc(-c3cc([N+](=O)[O-])cc4ccccc34)cc2n1 [P-0263, 4-((1R,5S)-3,8-diazabicyclo[3.2.1]octan-8-yl)-2-(((S)-1-methylpyrrolidin-2-yl)methoxy)-7-(3-nitronaphthalen-1-yl)quinazoline] |
| 10 to 100 | 10 to 100 | CN1CCC[C@H]1COc1nc(N2[C@@H]3CC[C@H]2CNC3)c2ccc(-c3c(Cl)cccc3Cl)cc2n1 [P-0264, 4-((1R,5S)-3,8-diazabicyclo[3.2.1]octan-8-yl)-7-(2,6-dichlorophenyl)-2-(((S)-1-methylpyrrolidin-2-yl)methoxy)quinazoline] |
| 0.0001 to 10 | 0.0001 to 10 | CN1CCC[C@H]1COc1nc(N2[C@@H]3CC[C@H]2CNC3)c2ccc(-c3cc(N)cc4ccccc34)cc2n1 [P-0265, 4-(4-((1R,5S)-3,8-diazabicyclo[3.2.1]octan-8-yl)-2-(((S)-1-methylpyrrolidin-2-yl)methoxy)quinazolin-7-yl)naphthalen-2-amine] |
| 10 to 100 | 10 to 100 | CN1CCC[C@H]1COc1nc(N2[C@@H]3CC[C@H]2CN(C(=O)NC2CCN(C4CCCCC4)C2)C3)c2ccc(-c3cc(O)cc4ccccc34)cc2n1 (stereo partly drawn) [P-0266, (1R,5S)-N-(1-cyclohexylpyrrolidin-3-yl)-8-(7-(3-hydroxynaphthalen-1-yl)-2-(((S)-1-methylpyrrolidin-2-yl)methoxy)quinazolin-4-yl)-3,8-diazabicyclo[3.2.1]octane-3-carboxamide] |
| 10 to 100 | 10 to 100 | CN1CCC[C@H]1COc1nc(N2[C@@H]3CC[C@H]2CN(C(=O)CCCN2CCOCC2)C3)c2ccc(-c3cc(O)cc4ccccc34)cc2n1 [P-0267, 1-((1R,5S)-8-(7-(3-hydroxynaphthalen-1-yl)-2-(((S)-1-methylpyrrolidin-2-yl)methoxy)quinazolin-4-yl)-3,8-diazabicyclo[3.2.1]octan-3-yl)-4-morpholinobutan-1-one] |
| 10 to 100 | 10 to 100 | CN1CCC[C@H]1COc1nc(N2[C@@H]3CC[C@H]2CN(c2cnccn2)C3)c2ccc(-c3cc(O)cc4ccccc34)cc2n1 [P-0268, 4-(2-(((S)-1-methylpyrrolidin-2-yl)methoxy)-4-((1R,5S)-3-(pyrazin-2-yl)-3,8-diazabicyclo[3.2.1]octan-8-yl)quinazolin-7-yl)naphthalen-2-ol] |
| 0.0001 to 10 | 10 to 100 | CN1CCC[C@H]1COc1nc(N2[C@@H]3CC[C@H]2CN(CC(=O)N2CCNCC2)C3)c2ccc(-c3cc(O)cc4ccccc34)cc2n1 [P-0269, 2-((1R,5S)-8-(7-(3-hydroxynaphthalen-1-yl)-2-(((S)-1-methylpyrrolidin-2-yl)methoxy)quinazolin-4-yl)-3,8-diazabicyclo[3.2.1]octan-3-yl)-1-(piperazin-1-yl)ethan-1-one] |
| 0.0001 to 10 | 10 to 100 | CN1CCC[C@H]1COc1nc(N2[C@@H]3CC[C@H]2CN(c2nccc(N)n2)C3)c2ccc(-c3cc(O)cc4ccccc34)cc2n1 [P-0270, 4-(4-((1R,5S)-3-(4-aminopyrimidin-2-yl)-3,8-diazabicyclo[3.2.1]octan-8-yl)-2-(((S)-1-methylpyrrolidin-2-yl)methoxy)quinazolin-7-yl)naphthalen-2-ol] |
| 10 to 100 | 0.0001 to 10 | CN1CCC[C@H]1COc1nc(N2[C@@H]3CC[C@H]2CN(C(=O)Nc2ccn[nH]2)C3)c2ccc(-c3cc(O)cc4ccccc34)cc2n1 [P-0271, (1R,5S)-8-(7-(3-hydroxynaphthalen-1-yl)-2-(((S)-1-methylpyrrolidin-2-yl)methoxy)quinazolin-4-yl)-N-(1H-pyrazol-5-yl)-3,8-diazabicyclo[3.2.1]octane-3-carboxamide] |
| 0.0001 to 10 | 10 to 100 | CN1CCC[C@H]1COc1nc(N2[C@@H]3CC[C@H]2CN(CC(O)CO)C3)c2ccc(-c3cc(O)cc4ccccc34)cc2n1 (stereo partly drawn) [P-0272, 3-((1R,5S)-8-(7-(3-hydroxynaphthalen-1-yl)-2-(((S)-1-methylpyrrolidin-2-yl)methoxy)quinazolin-4-yl)-3,8-diazabicyclo[3.2.1]octan-3-yl)propane-1,2-diol] |
| 10 to 100 | 10 to 100 | CN1CCC[C@H]1COc1nc(N2[C@@H]3CC[C@H]2CN(C(=O)c2cc[nH]n2)C3)c2ccc(-c3cc(O)cc4ccccc34)cc2n1 [P-0273, ((1R,5S)-8-(7-(3-hydroxynaphthalen-1-yl)-2-(((S)-1-methylpyrrolidin-2-yl)methoxy)quinazolin-4-yl)-3,8-diazabicyclo[3.2.1]octan-3-yl)(1H-pyrazol-3-yl)methanone] |
| 0.0001 to 10 | 100 to 1000 | CN1CCC[C@H]1COc1nc(N2[C@@H]3CC[C@H]2CN(CC(=O)N2CCC(N)CC2)C3)c2ccc(-c3cc(O)cc4ccccc34)cc2n1 [P-0274, 1-(4-aminopiperidin-1-yl)-2-((1R,5S)-8-(7-(3-hydroxynaphthalen-1-yl)-2-(((S)-1-methylpyrrolidin-2-yl)methoxy)quinazolin-4-yl)-3,8-diazabicyclo[3.2.1]octan-3-yl)ethan-1-one] |
| 10 to 100 | 10 to 100 | CN1CCC[C@H]1COc1nc(N2[C@@H]3CC[C@H]2CN(CC(=O)N2CC(O)C2)C3)c2ccc(-c3cc(O)cc4ccccc34)cc2n1 [P-0275, 1-(3-hydroxyazetidin-1-yl)-2-((1R,5S)-8-(7-(3-hydroxynaphthalen-1-yl)-2-(((S)-1-methylpyrrolidin-2-yl)methoxy)quinazolin-4-yl)-3,8-diazabicyclo[3.2.1]octan-3-yl)ethan-1-one] |
| 10 to 100 | 10 to 100 | CN1CCC[C@H]1COc1nc(N2[C@@H]3CC[C@H]2CN(CC(=O)N2CCOCC2)C3)c2ccc(-c3cc(O)cc4ccccc34)cc2n1 [P-0276, 2-((1R,5S)-8-(7-(3-hydroxynaphthalen-1-yl)-2-(((S)-1-methylpyrrolidin-2-yl)methoxy)quinazolin-4-yl)-3,8-diazabicyclo[3.2.1]octan-3-yl)-1-morpholinoethan-1-one] |
| 0.0001 to 10 | 10 to 100 | CN1CCN(C(=O)CN2C[C@H]3CC[C@@H](C2)N3c2nc(OC[C@@H]3CCCN3C)nc3cc(-c4cc(O)cc5ccccc45)ccc23)CC1 [P-0277, 2-((1R,5S)-8-(7-(3-hydroxynaphthalen-1-yl)-2-(((S)-1-methylpyrrolidin-2-yl)methoxy)quinazolin-4-yl)-3,8-diazabicyclo[3.2.1]octan-3-yl)-1-(4-methylpiperazin-1-yl)ethan-1-one] |
| 0.0001 to 10 | 10 to 100 | CN1CCC[C@H]1COc1nc(N2C[C@H]3CC[C@@H](C2)N3CC(=O)C2CCOC2)c2ccc(-c3cc(O)cc4ccccc34)c(F)c2n1 (stereo partly drawn) [P-0278, 2-((1R,5S)-3-(8-fluoro-7-(3-hydroxynaphthalen-1-yl)-2-(((S)-1-methylpyrrolidin-2-yl)methoxy)quinazolin-4-yl)-3,8-diazabicyclo[3.2.1]octan-8-yl)-1-(tetrahydrofuran-3-yl)ethan-1-one] |
